This note sets out measurements from ChEMBL document CHEMBL4304783, “Discovery of a Novel Selective Dual Peroxisome Proliferator-Activated Receptor α/δ Agonist for the Treatment of Primary Biliary Cirrhosis” (ACS Med Chem Lett, 2019).

Data set [1] concerns the target T1, Peroxisome proliferator-activated receptor gamma (Homo sapiens, UniProt P37231).
T1 sequence (P37231 whole entry): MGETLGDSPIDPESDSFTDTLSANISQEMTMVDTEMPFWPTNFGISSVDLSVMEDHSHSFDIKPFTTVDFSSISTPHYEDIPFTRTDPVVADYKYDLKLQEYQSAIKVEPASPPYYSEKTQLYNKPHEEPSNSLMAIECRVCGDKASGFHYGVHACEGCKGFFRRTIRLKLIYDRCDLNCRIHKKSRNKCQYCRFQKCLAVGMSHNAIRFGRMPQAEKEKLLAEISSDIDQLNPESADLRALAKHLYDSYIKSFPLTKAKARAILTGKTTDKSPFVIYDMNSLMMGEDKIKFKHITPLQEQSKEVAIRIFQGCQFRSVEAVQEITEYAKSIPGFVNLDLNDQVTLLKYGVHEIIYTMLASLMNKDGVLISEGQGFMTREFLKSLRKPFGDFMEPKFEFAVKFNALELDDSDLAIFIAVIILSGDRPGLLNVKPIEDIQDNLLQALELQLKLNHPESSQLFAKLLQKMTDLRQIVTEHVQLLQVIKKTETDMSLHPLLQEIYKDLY
Description: Agonist activity at PPARgamma (unknown origin) incubated for 3 to 16 hrs by pathhunter nuclear hormone receptor assay.

Data set [2] is described as follows: AUC (0 to last) in C57BL/6J mouse at 1 mg/kg, iv measured upto 24 hrs by LC-MS/MS analysis. More on the design: dose 1 mg/kg, time 0 - last, route intravenous. It is filed as ADME, organism-based. As to conditions: in vivo.
Data set [3] can be described thus: Oral bioavailability in Sprague-Dawley rat at 10 mg/kg measured upto 24 hrs by LC-MS/MS analysis. As to conditions: in vivo.
The nature of data set [4]: Clearance in C57BL/6J mouse at 1 mg/kg, iv measured upto 24 hrs by LC-MS/MS analysis. The class given is ADME, organism-based. The note with it: in vivo.
For data set [5], the target named is T2, Cytochrome P450 1A2 (Homo sapiens, UniProt P05177).
T2 sequence (P05177 whole entry): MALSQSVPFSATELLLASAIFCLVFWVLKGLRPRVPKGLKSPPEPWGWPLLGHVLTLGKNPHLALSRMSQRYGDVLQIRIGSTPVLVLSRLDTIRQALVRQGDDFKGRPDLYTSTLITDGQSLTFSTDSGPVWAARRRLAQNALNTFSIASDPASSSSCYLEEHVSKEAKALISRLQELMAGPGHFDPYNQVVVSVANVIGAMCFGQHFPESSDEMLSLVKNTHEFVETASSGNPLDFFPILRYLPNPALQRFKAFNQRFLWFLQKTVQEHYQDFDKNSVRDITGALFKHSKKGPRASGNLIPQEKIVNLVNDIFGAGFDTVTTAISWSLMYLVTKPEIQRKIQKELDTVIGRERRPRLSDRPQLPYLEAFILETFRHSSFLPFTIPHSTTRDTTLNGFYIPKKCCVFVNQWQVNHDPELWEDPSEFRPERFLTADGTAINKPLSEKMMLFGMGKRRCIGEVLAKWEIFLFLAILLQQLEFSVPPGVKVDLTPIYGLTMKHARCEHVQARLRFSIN
Description: Inhibition of CYP1A2 in human liver microsomes using phenacetin as substrate incubated for 10 mins followed by substrate addition further incubated for 10 mins by LC-MS/MS analysis. It is filed as ADME. On the technique in general: Microsomes from liver hold many membrane-bound enzymes, among them those of drug oxidation.

Data set [6] deals with T3, Peroxisome proliferator-activated receptor delta (Homo sapiens, UniProt Q03181).
T3 sequence (Q03181 whole entry): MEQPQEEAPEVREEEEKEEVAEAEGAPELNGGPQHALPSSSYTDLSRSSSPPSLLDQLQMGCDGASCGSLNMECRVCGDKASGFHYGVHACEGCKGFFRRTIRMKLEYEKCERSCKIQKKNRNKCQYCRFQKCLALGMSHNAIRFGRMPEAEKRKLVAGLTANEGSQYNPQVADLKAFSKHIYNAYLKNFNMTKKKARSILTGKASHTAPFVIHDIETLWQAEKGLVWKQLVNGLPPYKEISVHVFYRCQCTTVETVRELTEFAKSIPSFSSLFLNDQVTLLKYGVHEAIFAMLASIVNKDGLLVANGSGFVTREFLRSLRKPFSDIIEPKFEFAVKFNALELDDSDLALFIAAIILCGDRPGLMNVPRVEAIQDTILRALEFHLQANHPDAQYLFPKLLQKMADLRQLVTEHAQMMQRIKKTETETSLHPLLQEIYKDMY
Kind of data set: Agonist activity at PPARbeta (unknown origin) incubated for 3 to 16 hrs by pathhunter nuclear hormone receptor assay.

Data set [7] in a line: Volume of distribution at steady state in C57BL/6J mouse at 1 mg/kg, iv measured upto 24 hrs by LC-MS/MS analysis. It is filed as ADME, organism-based. As to conditions: in vivo, read-out: Vdss.
Data set [8] in a line: Cmax in C57BL/6J mouse at 10 mg/kg, po measured upto 24 hrs by LC-MS/MS analysis. More on the design: dose 10 mg/kg, route oral. The note with it: in vivo. It is filed as ADME, organism-based.
The nature of data set [9]: AUC (0 to last) in Sprague-Dawley rat at 1 mg/kg, iv measured upto 24 hrs by LC-MS/MS analysis. It is filed as ADME, organism-based. Also on record: dose 1 mg/kg, route intravenous, time 0 - last. The note with it: in vivo.
A short description of data set [10]: AUC (0 to last) in Sprague-Dawley rat at 10 mg/kg, po measured upto 24 hrs by LC-MS/MS analysis. Also on record: dose 10 mg/kg, route oral, time 0 - last. The class given is ADME, organism-based. The note with it: in vivo.
Data set [11] is described as follows: Half life in C57BL/6J mouse at 1 mg/kg, iv measured upto 24 hrs by LC-MS/MS analysis. The class given is ADME, organism-based. The note with it: in vivo.
Data set [12] in a line: Half life in Sprague-Dawley rat at 1 mg/kg, iv measured upto 24 hrs by LC-MS/MS analysis. The class given is ADME, organism-based. The note with it: in vivo.
Data set [13] can be described thus: Apparent permeability across basolateral to apical side in human Caco2 cells at 2 uM incubated for 120 mins by LC-MS/MS analysis. The class given is ADME, cell-based. As to conditions: Caco-2. On the technique in general: Caco-2 cells form a polarised layer with tight junctions and transporters.
Data set [14] addresses Cytochrome P450 3A4 (Homo sapiens, UniProt P08684). Kind of data set: Inhibition of CYP3A4 in human liver microsomes using midazolam as substrate incubated for 10 mins followed by substrate addition further incubated for 10 mins by LC-MS/MS analysis. It is filed as ADME.
Data set [15] can be described thus: Clearance in Sprague-Dawley rat at 1 mg/kg, iv measured upto 24 hrs by LC-MS/MS analysis. The note with it: in vivo. The class given is ADME, organism-based.
In data set [16] the target is Cytochrome P450 2C9 (Homo sapiens, UniProt P11712). Kind of data set: Inhibition of CYP2C9 in human liver microsomes using diclofenac as substrate incubated for 10 mins followed by substrate addition further incubated for 10 mins by LC-MS/MS analysis. It is filed as ADME.
The subject of data set [17] is Rattus norvegicus. Kind of data set: Hepatoprotective activity in Sprague-Dawley rat assessed as reduction in ANIT-stimulated fibrosis area at 3 mg/kg, ig administered for 8 days by hematoxylin and eosin staining based mopho-metric analysis relative to control. Also on record: scale not given: the % may be the effect or the level left. It is filed as functional.

pEC50, pIC50: −log10 of the molar value.

Sequence of Cytochrome P450 3A4 (P08684 whole entry): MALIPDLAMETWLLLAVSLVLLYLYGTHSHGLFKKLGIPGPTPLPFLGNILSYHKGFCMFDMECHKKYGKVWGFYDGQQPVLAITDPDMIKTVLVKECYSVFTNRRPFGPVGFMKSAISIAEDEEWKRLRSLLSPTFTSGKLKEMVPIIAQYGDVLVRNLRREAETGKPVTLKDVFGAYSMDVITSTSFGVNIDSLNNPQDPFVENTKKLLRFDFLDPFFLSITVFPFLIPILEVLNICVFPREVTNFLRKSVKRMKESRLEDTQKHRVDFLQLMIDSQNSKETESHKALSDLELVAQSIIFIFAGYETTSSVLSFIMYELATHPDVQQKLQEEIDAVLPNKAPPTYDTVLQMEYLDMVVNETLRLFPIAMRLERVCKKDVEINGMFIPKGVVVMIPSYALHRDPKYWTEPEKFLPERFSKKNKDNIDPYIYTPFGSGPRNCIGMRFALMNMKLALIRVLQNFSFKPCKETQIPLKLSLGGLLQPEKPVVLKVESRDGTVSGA
Sequence of Cytochrome P450 2C9 (P11712 whole entry): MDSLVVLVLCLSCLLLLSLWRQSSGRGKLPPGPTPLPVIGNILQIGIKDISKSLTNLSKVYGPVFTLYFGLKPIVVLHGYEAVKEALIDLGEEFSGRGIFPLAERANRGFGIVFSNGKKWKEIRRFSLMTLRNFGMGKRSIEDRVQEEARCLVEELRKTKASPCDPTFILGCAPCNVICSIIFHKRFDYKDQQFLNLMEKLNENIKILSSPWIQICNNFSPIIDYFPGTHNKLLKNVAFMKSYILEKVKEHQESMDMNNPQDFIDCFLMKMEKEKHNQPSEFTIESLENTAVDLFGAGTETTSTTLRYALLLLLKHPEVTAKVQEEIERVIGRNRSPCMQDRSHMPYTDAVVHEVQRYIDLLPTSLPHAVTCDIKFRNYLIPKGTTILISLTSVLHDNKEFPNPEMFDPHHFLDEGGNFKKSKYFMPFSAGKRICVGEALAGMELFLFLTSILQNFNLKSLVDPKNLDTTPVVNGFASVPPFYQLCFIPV

As usually defined, the pEC50 is −log10 of the EC50, conventionally taken in molar units. A word on the AUC(0-t): it is the area under the concentration-time curve up to a stated or last time point. What is called bioavailability is dose-corrected exposure relative to a reference, in per cent. For orientation: clearance means the volume of plasma or blood freed of the substance per unit of time. A word on the pIC50: it is −log10 of the IC50, conventionally taken in molar units. For orientation: Cmax means the peak of the concentration-time curve. Usually half-life stands for how long it takes for the measured level to halve. For orientation: Papp B→A means how fast a substance crosses the layer from the basolateral side. As to `Cc1cc(Cc2cc(-c3ccc(Br)cc3)on2)cc(C)c1OC(C)(C)C(=O)O`, the pEC50 in [1] was 5.53; in data set [6], 8.30. Besides, the results for the AUC(0-t) at 24 h in [2], in data set [9] and in data set [10] were 10.6 µM·h, 105 µM·h and 561 µM·h, respectively. In [3], the bioavailability stood at 53.3%. Also, the clearance in data set [4] was 3.53 mL/min/kg; in [15], 0.35 mL/min/kg. Moreover, the negative-log IC50 (pIC50) in data set [5] was 5.00; in [14], under 4.30; in data set [16], 4.70. In addition, the Vd in data set [7] was 0.53 L/kg. The molecule also showed a Cmax in data set [8] of 52 µM. Further, the half-life in data set [11] is 3.6 h; in data set [12], 6 h. For the same molecule, in data set [13], the basolateral-to-apical permeability (Papp B→A) at 2 h, 2 µM turned out to be 0.2 ×10⁻⁶ cm/s. The Activity in [17] is listed as 28%.
